Measured values: patent publication US8791264B2 (Purdue Pharma L.P., priority 2006, dated 2014)

Columns and labels:
[1] = biological target: T1, N-type calcium channel (NTCC) (Homo sapiens, UniProt Q00975); test: FLIPR calcium mobilization assay for N-type calcium channel; format: cell-based; settings: calcium mobilization in vitro assay; differentiated IMR32 cells
T1 construct: host or cells: IMR32 cells differentiated with dibutyryl cAMP and bromodeoxyuridine
Outline: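 Differentiated IMR32 cells (8 days, dibutyryl cAMP and BrdU) loaded with 3 μM Fluo-4 during 90 mM KCl pre-stimulation, with compound at about 846 pM to 17 μM plus 5 μM nitrendipine. After washes in compound, FLIPR read basal fluorescence 315 s, then 45 s after KCl addition (final 90 mM).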

[2] = biological target: T2, recombinant rat L-type calcium channel (LTCC) subunits (α1c, α2δ, and β1) (Rattus norvegicus, UniProt P22002); test: FLIPR calcium mobilization assay for L-type calcium channel; format: cell-based; settings: calcium mobilization in vitro assay; HEK293 cells expressing rat LTCC
T2 construct: expressed in transfected cells
Method: Recombinant human embryonal kidney cells (HEK293, ATCC) stably transfected with either N-type calcium channel (NTCC) subunits (α1b, α2δ, and ⊖3) or L-type calcium channel (LTCC) subunits (α1, α2δ, and β1) were routinely cultured in growth medium consisting of Dulbecco's Modified Eagles Medium containing 10% FBS, 100 U/mL penicillin, 100 μg/mL streptomycin, 4 mM L-glutamine, 500 μg/mL geneticin (G418), 20 μg/mL Blasticidin S (InVivogen, San Diego, Calif.) and 500 μg/mL zeocin (InVivogen).
FLIPR Calcium Mobilization Assay for L-Type Calcium Channel.
One day prior to performing this assay, HEK293 cells stably expressing recombinant rat L-type calcium channel (LTCC) subunits (α1c, α2δ, and β1) were trypsinized, then seeded on poly-D-lysine-coated 96-well clear-bottom black plates (Becton Dickinson, Franklin Lakes, N.J.) at 75,000 cells/well. On the day of the assay, the plates were washed with LTCC wash buffer (127 mM NaCl, 2 mM MgCl2, 700 μM NaH2PO4, 5 mM CaCl2, 5 mM NaHCO3, 8 mM HEPES, 10 mM glucose, pH 7.4), then loaded with 0.1 mL of LTCC wash buffer containing Fluo-4 (3 μM final concentration, Molecular Probes, Eugene, Oreg.). After 1 hour, the cells were washed with 0.1 mL LTCC wash buffer and resuspended in 0.05 mL LTCC assay buffer (same composition as LTCC wash buffer). Plates were then transferred to a FLIPR^96 for assay. The FLIPR measured basal Fluo-4 fluorescence for 15 seconds, then is added 0.05 mL of each compound tested diluted in LTCC assay buffer at final concentrations ranging from about 846 pM to about 17 μM. Fluo-4 fluorescence was then measured for 5 minutes. 0.1 mL KCl agonist dissolved in LTCC assay buffer was then added to the cells to produce a final concentration of 90 mM KCl, and fluorescence was measured for another 45 seconds. Data were collected over the entire time course and analyzed using Excel, Graph Pad Prism, or an in-house regression analysis software.

T1 sequence (Q00975 whole entry): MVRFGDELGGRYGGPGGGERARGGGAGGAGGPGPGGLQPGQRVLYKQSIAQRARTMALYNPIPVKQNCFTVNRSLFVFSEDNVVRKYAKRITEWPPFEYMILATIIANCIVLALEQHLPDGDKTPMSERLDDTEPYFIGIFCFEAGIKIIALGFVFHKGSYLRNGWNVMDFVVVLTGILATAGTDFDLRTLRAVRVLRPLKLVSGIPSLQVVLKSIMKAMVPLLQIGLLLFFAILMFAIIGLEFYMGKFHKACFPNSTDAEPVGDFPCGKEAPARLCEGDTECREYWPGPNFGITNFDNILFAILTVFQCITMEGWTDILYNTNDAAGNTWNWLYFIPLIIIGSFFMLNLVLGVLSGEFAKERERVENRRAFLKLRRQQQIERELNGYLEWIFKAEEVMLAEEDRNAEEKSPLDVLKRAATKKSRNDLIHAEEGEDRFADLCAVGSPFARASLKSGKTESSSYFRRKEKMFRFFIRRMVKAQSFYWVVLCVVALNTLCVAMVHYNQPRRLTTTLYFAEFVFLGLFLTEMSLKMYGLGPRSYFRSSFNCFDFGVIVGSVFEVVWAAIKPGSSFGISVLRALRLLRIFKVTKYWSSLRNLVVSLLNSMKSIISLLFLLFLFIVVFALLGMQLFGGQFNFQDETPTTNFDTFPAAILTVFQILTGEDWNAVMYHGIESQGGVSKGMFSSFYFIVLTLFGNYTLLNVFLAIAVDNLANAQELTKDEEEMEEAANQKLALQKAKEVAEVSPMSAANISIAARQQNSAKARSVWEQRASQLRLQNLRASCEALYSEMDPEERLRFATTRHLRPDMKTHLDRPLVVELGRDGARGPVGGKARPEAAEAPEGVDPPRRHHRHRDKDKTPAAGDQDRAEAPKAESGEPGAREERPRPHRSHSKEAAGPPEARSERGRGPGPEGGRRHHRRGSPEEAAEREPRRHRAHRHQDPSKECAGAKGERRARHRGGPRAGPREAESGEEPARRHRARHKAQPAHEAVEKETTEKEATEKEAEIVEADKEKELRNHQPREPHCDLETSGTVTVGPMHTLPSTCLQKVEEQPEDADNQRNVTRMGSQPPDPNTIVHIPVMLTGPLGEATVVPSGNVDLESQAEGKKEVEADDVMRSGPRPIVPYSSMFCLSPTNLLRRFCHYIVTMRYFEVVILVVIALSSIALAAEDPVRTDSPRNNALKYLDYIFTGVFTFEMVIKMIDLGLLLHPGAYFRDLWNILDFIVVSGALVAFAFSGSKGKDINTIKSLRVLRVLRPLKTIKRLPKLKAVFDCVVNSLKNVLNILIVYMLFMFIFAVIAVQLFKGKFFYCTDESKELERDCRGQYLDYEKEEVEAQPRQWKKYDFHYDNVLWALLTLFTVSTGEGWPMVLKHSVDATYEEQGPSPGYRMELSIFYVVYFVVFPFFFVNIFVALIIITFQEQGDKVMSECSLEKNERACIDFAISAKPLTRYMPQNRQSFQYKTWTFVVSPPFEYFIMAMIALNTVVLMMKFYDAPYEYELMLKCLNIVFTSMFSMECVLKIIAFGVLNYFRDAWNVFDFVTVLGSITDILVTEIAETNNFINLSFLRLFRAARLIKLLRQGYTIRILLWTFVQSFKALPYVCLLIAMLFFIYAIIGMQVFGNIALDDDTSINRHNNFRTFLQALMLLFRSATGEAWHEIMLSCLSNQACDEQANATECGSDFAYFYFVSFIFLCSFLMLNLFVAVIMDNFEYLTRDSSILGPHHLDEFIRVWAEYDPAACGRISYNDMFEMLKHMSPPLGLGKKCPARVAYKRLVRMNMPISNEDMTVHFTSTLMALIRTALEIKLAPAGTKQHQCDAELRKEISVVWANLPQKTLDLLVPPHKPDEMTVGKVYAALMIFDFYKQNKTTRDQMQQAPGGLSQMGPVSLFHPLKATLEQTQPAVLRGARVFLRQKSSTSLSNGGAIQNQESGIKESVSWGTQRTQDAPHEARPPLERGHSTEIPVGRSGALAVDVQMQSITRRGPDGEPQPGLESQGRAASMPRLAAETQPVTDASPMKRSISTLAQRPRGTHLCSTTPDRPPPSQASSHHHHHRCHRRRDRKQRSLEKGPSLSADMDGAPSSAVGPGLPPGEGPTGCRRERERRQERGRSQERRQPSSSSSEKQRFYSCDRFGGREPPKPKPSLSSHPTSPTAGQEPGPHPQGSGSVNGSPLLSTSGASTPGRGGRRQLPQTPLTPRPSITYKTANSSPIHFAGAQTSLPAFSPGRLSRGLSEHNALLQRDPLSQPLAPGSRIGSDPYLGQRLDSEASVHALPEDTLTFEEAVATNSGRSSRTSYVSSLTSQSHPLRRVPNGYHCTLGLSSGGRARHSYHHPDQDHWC
T1 sequence (P54289 25-956 partner limits assumed): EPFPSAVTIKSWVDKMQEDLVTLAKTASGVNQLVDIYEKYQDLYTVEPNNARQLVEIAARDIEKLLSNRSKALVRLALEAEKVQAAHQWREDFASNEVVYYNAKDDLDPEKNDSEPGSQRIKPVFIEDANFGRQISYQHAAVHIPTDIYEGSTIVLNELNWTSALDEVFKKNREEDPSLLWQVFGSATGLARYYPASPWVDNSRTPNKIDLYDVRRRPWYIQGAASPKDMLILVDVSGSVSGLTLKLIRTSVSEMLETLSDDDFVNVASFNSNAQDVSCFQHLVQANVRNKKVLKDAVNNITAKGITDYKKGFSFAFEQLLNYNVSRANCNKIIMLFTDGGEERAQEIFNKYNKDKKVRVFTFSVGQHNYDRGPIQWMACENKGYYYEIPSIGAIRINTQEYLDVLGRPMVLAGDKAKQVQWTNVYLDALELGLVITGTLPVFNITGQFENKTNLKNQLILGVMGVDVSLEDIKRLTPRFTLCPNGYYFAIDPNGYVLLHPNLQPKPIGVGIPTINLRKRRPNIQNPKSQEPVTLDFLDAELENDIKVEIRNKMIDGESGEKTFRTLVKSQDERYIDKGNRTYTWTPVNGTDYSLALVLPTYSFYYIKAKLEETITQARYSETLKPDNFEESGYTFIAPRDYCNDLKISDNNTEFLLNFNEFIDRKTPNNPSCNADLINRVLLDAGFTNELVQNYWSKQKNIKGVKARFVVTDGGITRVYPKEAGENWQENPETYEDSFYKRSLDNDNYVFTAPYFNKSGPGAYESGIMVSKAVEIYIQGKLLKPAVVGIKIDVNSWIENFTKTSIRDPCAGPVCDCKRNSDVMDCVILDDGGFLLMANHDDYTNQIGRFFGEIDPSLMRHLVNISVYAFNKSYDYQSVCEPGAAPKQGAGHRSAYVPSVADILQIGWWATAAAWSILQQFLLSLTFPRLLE
T1 sequence (P54289 957-1103 partner limits assumed): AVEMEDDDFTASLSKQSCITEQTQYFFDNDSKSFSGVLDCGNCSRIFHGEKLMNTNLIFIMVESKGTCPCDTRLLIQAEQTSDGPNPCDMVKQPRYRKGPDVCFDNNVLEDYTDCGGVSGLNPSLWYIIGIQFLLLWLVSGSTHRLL
T1 sequence (P54284 whole entry partner): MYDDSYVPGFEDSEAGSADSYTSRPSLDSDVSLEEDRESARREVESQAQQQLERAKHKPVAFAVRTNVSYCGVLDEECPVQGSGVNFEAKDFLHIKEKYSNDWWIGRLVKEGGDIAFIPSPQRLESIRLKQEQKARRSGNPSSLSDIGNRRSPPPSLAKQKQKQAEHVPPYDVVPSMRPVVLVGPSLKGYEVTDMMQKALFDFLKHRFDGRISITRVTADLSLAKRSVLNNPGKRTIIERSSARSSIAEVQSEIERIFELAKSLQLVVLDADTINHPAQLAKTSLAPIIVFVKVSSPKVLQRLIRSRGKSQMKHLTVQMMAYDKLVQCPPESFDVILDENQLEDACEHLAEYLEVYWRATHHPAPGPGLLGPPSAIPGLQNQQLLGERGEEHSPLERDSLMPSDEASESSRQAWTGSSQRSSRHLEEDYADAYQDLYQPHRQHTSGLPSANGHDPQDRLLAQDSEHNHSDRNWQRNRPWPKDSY

For `COc1ccccc1CNCC(=O)N1CCC(N(C2CC2)S(=O)(=O)c2ccc(Cl)cc2)CC1` [Compound 101, 4-Chloro-N-cyclopropyl-N-{1-[2-(2-methoxybenzylamino)acetyl]-piperidin-4-yl}-benzenesulfonamide], the IC50 [1] was 630 nM and the IC50 [2] was 8.1 µM.

In the case of `CC(C)N(C1CCN(CC(=O)N(c2ccc(F)cc2)c2ccc(F)cc2)CC1)S(=O)(=O)c1cccc(C(F)(F)F)c1` [Compound 84, N,N-Bis-(4-fluorophenyl)-2-{4-[isopropyl-(3-trifluoromethyl-benzenesulfonyl)amino]-piperidin-1-yl}-acetamide], the IC50 [1] is reported as 320 nM and the IC50 [2] is reported as > 20 µM.

In the case of `CC(C)N(C1CCN(CCCN(c2ccc(F)cc2)c2ccc(F)cc2)CC1)S(=O)(=O)c1cccc(C(F)(F)F)c1` [Compound 8, N-(1-{3-[Bis(4-fluorophenyl)amino]propyl}piperidin-4-yl)-N-isopropyl-3-trifluoromethylbenzenesulfonamide], the IC50 [1] is reported as 620 nM and the IC50 [2] is reported as > 20 µM.

`CC(C)C[C@H](NCc1ccccc1)C(=O)N1CCC(N(C(C)C)S(=O)(=O)c2cccc(C(F)(F)F)c2)CC1` [Compound 88b, (S)—N-[1-(2-Benzylamino-4-methylpentanoyl)-piperidin-4-yl]-N-isopropyl-3-trifluoromethylbenzenesulfonamide] was tested, and the IC50 [1] was 300 nM and the IC50 [2] was > 20 µM.

`CC(C)c1ccc(NC(=O)CN2CCC(N(C3CC3)S(=O)(=O)c3cccc(C(F)(F)F)c3)CC2)cc1` [Compound 59, 2-{4-[Cyclopropyl-(3-trifluoromethylbenzenesulfonyl)-amino]-piperidin-1-yl}-N-(4-isopropylphenyl)acetamide] showed an IC50 [1] of 420 nM and an IC50 [2] of 10 to 20 µM.

With `CN(C1CCN(CC(=O)Nc2ccc(C(F)(F)F)cc2)CC1)S(=O)(=O)c1cccc(C(F)(F)F)c1` [Compound 60, 2-{4-[Methyl-(3-trifluoromethylbenzenesulfonyl)-amino]-piperidin-1-yl}-N-(4-trifluoromethylphenyl)acetamide] the IC50 [1] was 990 nM and the IC50 [2] was > 20 µM.

With `CN(C1CCN(CC(=O)Nc2ccc(F)cc2)CC1)S(=O)(=O)c1cccc(C(F)(F)F)c1` [Compound 51, N-(4-Fluorophenyl)-2-{4-[methyl-(3-trifluoromethylbenzenesulfonyl)-amino]-piperidin-1-yl}-acetamide] the IC50 [1] was 700 nM and the IC50 [2] was > 20 µM.

Work on `CC(C)N(C1CCN(CC(=O)Nc2ccc(C#N)cc2)CC1)S(=O)(=O)c1cccc(C(F)(F)F)c1` [Compound 42g, N-(4-Cyanophenyl)-2-{4-[isopropyl-(3-trifluoromethylbenzenesulfonyl)amino]-piperidin-1-yl}-acetamide] yielded an IC50 [1] of 180 nM and an IC50 [2] of 2.51 µM.

In the case of `CCN(CC)C(=O)CN1CCC(N(C2CC2)S(=O)(=O)c2cccc(C(F)(F)F)c2)CC1` [Compound 38, 2-{4-[Cyclopropyl-(3-trifluoromethylbenzenesulfonyl)amino]-piperidin-1-yl}-N,N-diethylacetamide], the IC50 [1] is reported as 840 nM and the IC50 [2] is reported as 3.26 µM.

With `CC(C)N(C1CCN(C(=O)CCNc2cccc(Cl)c2)CC1)S(=O)(=O)c1cccc(C(F)(F)F)c1` [N-{1-[3-(3-chloro-phenylamino)-propionyl]-piperidin-4-yl}-N-isopropyl-3-trifluoromethyl-benzenesulfonamide] the IC50 [1] was 900 nM and the IC50 [2] was > 20 µM.

`CC(C)(C)c1ccc(NC(=O)CN2CCC(N(C3CC3)S(=O)(=O)c3cccc(C(F)(F)F)c3)CC2)cc1` [Compound 56] was tested, and the IC50 [1] was 760 nM and the IC50 [2] was > 20 µM.

Compound `CC(C)CNC(=O)CN1CCC(N(C(C)C)S(=O)(=O)c2cccc(C(F)(F)F)c2)CC1` [Compound 34, N-Isobutyl-2-{4-[isopropyl-(3-trifluoromethylbenzenesulfonyl)amino]-piperidin-1-yl}-acetamide] has an IC50 [1] of 320 nM and an IC50 [2] of 9.08 µM.

In the case of `CC(C)N(C1CCN(C(=O)CCNc2ccc(F)cc2Cl)CC1)S(=O)(=O)c1cccc(C(F)(F)F)c1` [N-{1-[3-(2-chloro-4-fluoro-phenylamino)-propionyl]-piperidin-4-yl}-N-isopropyl-3-trifluoromethyl-benzenesulfonamide], the IC50 [1] is reported as 820 nM and the IC50 [2] is reported as > 20 µM.

In the case of `COc1ccc(CNCCC(=O)N2CCC(N(C(C)C)S(=O)(=O)c3cccc(C(F)(F)F)c3)CC2)cc1` [N-isopropyl-N-{1-[3-(4-methoxy-benzylamino)-propionyl]-piperidin-4-yl}-3-trifluoromethyl-benzenesulfonamide], the IC50 [1] is reported as 320 nM and the IC50 [2] is reported as 4.3 µM.

With `CC(C)N(C1CCN(C(=O)CNCC2CCCCC2)CC1)S(=O)(=O)c1cccc(C(F)(F)F)c1` [Compound 102, N-{1-[2-(Cyclohexylmethylamino)acetyl]-piperidin-4-yl}-N-isopropyl-3-trifluoromethylbenzenesulfonamide] the IC50 [1] was 220 nM and the IC50 [2] was > 20 µM.

`Cc1ccccc1NCCC(=O)N1CCC(N(C(C)C)S(=O)(=O)c2cccc(C(F)(F)F)c2)CC1` [N-isopropyl-N-[1-(3-o-tolylamino-propionyl)-piperidin-4-yl]-3-trifluoromethyl-benzenesulfonamide] was tested, and the IC50 [1] was 430 nM and the IC50 [2] was 5.28 µM.

`CCOc1cc(F)ccc1NC(=O)CN1CCC(N(C2CC2)S(=O)(=O)c2cccc(C(F)(F)F)c2)CC1` [Compound 70, 2-{4-[Cyclopropyl-(3-trifluoromethylbenzenesulfonyl)amino]-piperidin-1-yl}-N-(2-ethoxy-4-fluorophenyl)-acetamide] was tested, and the IC50 [1] was 920 nM and the IC50 [2] was > 20 µM.

For `CC(C)N(C1CCN(C(=O)[C@H](Cc2ccccc2)NCC(N)=O)CC1)S(=O)(=O)c1cccc(C(F)(F)F)c1` [Compound 109, (S)-2-(1-Benzyl-2-{4-[isopropyl(3-trifluoromethylbenzene-sulfonyl)amino]-piperidin-1-yl}-2-oxo-ethylamino)-acetamide], the IC50 [1] was 790 nM and the IC50 [2] was 7.43 µM.

`CC(C)N(C1CCN(C(=O)CCNc2ccc(F)cc2F)CC1)S(=O)(=O)c1cccc(C(F)(F)F)c1` [N-{1-[3-(2,4-difluoro-phenylamino)-propionyl]-piperidin-4-yl}-N-isopropyl-3-trifluoromethyl-benzenesulfonamide] was tested, and the IC50 [1] was 830 nM and the IC50 [2] was > 20 µM.

With `COc1ccccc1NC(=O)CCN1CCC(N(C(C)C)S(=O)(=O)c2cccc(C(F)(F)F)c2)CC1` [Compound 107b, 3-{4-[Isopropyl-(3-trifluoromethylbenzenesulfonyl)amino]-piperidin-1-yl}-N-(2-methoxyphenyl)-propionamide] the IC50 [1] was 670 nM and the IC50 [2] was > 20 µM.

`Cc1cccc(C)c1NCCC(=O)N1CCC(N(C(C)C)S(=O)(=O)c2cccc(C(F)(F)F)c2)CC1` [N-{1-[3-(2,6-dimethyl-phenylamino)-propionyl]-piperidin-4-yl}-N-isopropyl-3-trifluoromethyl-benzenesulfonamide] was tested, and the IC50 [1] was 460 nM and the IC50 [2] was > 20 µM.

With `CC(C)N(C1CCN(C(=O)C(N)Cc2ccc(OCc3ccccc3)cc2)CC1)S(=O)(=O)c1cccc(C(F)(F)F)c1` (stereo not shown) [N-{1-[2-amino-3-(4-benzyloxy-phenyl)-propionyl]-piperidin-4-yl}-N-isopropyl-3-trifluoromethyl-benzenesulfonamide] the IC50 [1] was 710 nM and the IC50 [2] was 2.38 µM.

With `O=C(CN1CCC(N(C2CC2)S(=O)(=O)c2cccc(C(F)(F)F)c2)CC1)NCc1cc(C(F)(F)F)cc(C(F)(F)F)c1` [Compound 64, N-(3,5-Bis-trifluoromethylbenzyl)-2-{4-[cyclopropyl-(3-trifluoromethylbenzenesulfonyl)amino]-piperidin-1-yl}-acetamide] the IC50 [1] was 220 nM and the IC50 [2] was > 20 µM.

Work on `CC(C)CC(O)C(=O)N1CCC(N(C(C)C)S(=O)(=O)c2cccc(C(F)(F)F)c2)CC1` (stereo not shown) [N-[1-(2-hydroxy-4-methyl-pentanoyl)-piperidin-4-yl]-N-isopropyl-3-trifluoromethyl-benzenesulfonamide] yielded an IC50 [1] of 950 nM and an IC50 [2] of 5.49 µM.

In the case of `CC(C)N(C1CCN(C(=O)CCNc2ccccc2OC(F)(F)F)CC1)S(=O)(=O)c1cccc(C(F)(F)F)c1` [N-isopropyl-N-{1-[3-(2-trifluoromethoxy-phenylamino)-propionyl]-piperidin-4-yl}-3-trifluoromethyl-benzenesulfonamide], the IC50 [1] is reported as 330 nM and the IC50 [2] is reported as > 20 µM.

`COc1ccc(CNCC(=O)N2CCC(N(C3CC3)S(=O)(=O)c3ccc(Cl)cc3)CC2)cc1` [Compound 100, 4-Chloro-N-cyclopropyl-N-{1-[2-(4-methoxybenzylamino)acetyl]-piperidin-4-yl}-benzenesulfonamide] was tested, and the IC50 [1] was 660 nM and the IC50 [2] was 10 to 20 µM.
